Assays:
[1] = system: yeast avatars expressing heterologous shikimate pathways (EPSPS enzyme); experiment: Yeast avatar glyphosate sensitivity assay (panel of avatars); type: cell-based, Saccharomyces cerevisiae
[2] = system: Staphylococcus aureus pathway; experiment: Yeast avatar glyphosate sensitivity assay, Staphylococcus aureus pathway; type: cell-based; settings: aro1Δ yeast carrying Staphylococcus aureus pathway, 0.25% glyphosate, FIG. 3
[3] = system: Neisseria gonorrhoeae pathway; experiment: Yeast avatar glyphosate sensitivity assay, Neisseria gonorrhoeae pathway; type: cell-based; settings: aro1Δ yeast carrying Neisseria gonorrhoeae pathway, 0.25% glyphosate, FIG. 3
[4] = target: T1, step 2 (DHQS) of Neisseria gonorrhoeae (Neisseria gonorrhoeae, UniProt Q5FAD4); experiment: N−1 assay for molecular target of glyphosate, [Sau HGC] lacking step 2; type: cell-based; settings: aro1Δ [Ngo] yeast with [Sau HGC] lacking step 2, −AAA, 0.25% glyphosate
T1 construct: expressed in transfected cells; host or cells: Saccharomyces cerevisiae aro1Δ, co-transformed with [Sau HGC] lacking step 2
T1 sequence (Q5FAD4 whole entry): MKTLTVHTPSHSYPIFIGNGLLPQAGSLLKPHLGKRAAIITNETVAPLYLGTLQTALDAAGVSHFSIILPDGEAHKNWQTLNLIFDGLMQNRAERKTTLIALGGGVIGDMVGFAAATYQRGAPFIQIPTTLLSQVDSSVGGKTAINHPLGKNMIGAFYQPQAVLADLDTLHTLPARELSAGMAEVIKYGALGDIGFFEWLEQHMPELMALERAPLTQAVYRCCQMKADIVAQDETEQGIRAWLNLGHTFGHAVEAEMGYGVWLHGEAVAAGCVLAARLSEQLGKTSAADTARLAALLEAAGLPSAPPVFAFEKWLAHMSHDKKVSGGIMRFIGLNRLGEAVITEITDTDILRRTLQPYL
Excerpt: (§1) FIG. 6. Molecular target identification of the shikimate pathway inhibitor glyphosate in the yeast avatar system. Yeast cells lacking ARO1 (aro1Δ) carrying the Neisseria gonorrhoeae pathway ([Ngo]) or an empty vector (empty) were co-transformed with a full-length Staphylococcus aureus pathways ([Sau HGC]), one of five derivatives of [Sau HGC] lacking a single enzymatic activity (step 2, step 3, step 4, step 5, step 6), or an empty vector (empty) lacking all shikimate pathway enzymatic activities. Cells were plated on replete medium including aromatic amino acids (+AAA) or selective medium lacking aromatic amino acids (−AAA). 0.25% glyphosate (vol/vol of a commercially available 41% solution of glyphosate) was added to the plates where indicated. Cell growth indicates complementation and absence of cell growth indicates no complementation.
(§2) As discussed above, five steps of the endogenous shikimate pathway are provided by a single gene, ARO1, which encodes a penta-functional protein (FIG. 1, 2). […] To distinguish between these possibilities and determine whether any of the heterologous enzymatic activities are functional in yeast, the “N−1” assay can be used. […] Each of the five strains can then be evaluated for complementation on medium lacking aromatic amino acids. […]

[5] = system: step 6 (EPSPS) of Neisseria gonorrhoeae; experiment: N−1 assay for molecular target of glyphosate, [Sau HGC] lacking step 6; type: cell-based, yeast (aro1Δ) carrying Neisseria gonorrhoeae pathway; settings: aro1Δ [Ngo] yeast with [Sau HGC] lacking step 6, −AAA, 0.25% glyphosate
Excerpt: as §1, §2

[6] = target: step 2 of the pathway, DHQS (Escherichia coli, UniProt P07639); settings: reference (25); cited from earlier work
Chain of step 2 of the pathway, DHQS (P07639 whole entry): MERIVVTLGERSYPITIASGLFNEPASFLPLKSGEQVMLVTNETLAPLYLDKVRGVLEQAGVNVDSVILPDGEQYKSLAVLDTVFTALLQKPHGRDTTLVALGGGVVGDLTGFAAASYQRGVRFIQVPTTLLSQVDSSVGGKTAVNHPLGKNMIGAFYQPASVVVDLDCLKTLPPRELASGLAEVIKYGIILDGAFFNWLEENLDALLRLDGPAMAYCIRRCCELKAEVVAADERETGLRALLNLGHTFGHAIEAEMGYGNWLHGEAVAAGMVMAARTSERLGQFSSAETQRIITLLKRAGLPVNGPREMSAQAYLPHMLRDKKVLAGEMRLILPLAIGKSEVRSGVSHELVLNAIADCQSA

For `O=C(O)CNCP(=O)(O)O` [glyphosate], the “ability of yeast avatars to grow on glyphosate” value ([1]; 0.25% glyphosate (vol/vol of 41% solution), medium lacking aromatic amino acids, 6 days at 30° C., a number of avatars) was “sensitive”, the “glyphosate sensitivity upon supplementation of aromatic amino acids” value ([1]; 0.25% glyphosate, plus tryptophan, phenylalanine and tyrosine) was “glyphosate sensitivity was overcome” and the “growth of avatar on glyphosate (sensitivity/resistance)” value [2] was “resistant”. The “growth of avatar on glyphosate (sensitivity/resistance)” value [3] was “demonstrated sensitivity”, the cell growth [4] was “completely inhibited” and the “sensitivity of enzymatic activity to glyphosate” value [4] was “sensitive”. For the same compound, the cell growth [5] was “completely inhibited”, the “sensitivity of enzymatic activity to glyphosate” value [5] was “sensitive” and the “inhibition of DHQS” value [6] was “inhibits”.
